Reference: PubChem BioAssay (NCI)
Several values for one entry are separate records, joined by “and”; a condition that tells them apart may be missing. Equal entries are not always repeated.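 Assay format: 96-well plates, 48-hour exposure. GI50: concentration for 50% inhibition of growth. TGI is the concentration that stops growth completely.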

Each compound was assayed on A549 NSCLC (assay: NCI anticancer screen, dose series, 48 h).
`CC1(C)N=C(N)N=C(N)N1c1ccc(CCC(=O)Nc2ccc(S(=O)(=O)F)cc2)cc1` was tested, and the GI50 was 2.87 µM and the TGI was over 100 µM.
With `N#CC1(c2ccc(NC(=O)c3cccnc3NCc3ccncc3)cc2)CCCC1` the GI50 was 17.3 µM and the TGI was over 79.7 µM.
Work on `Cn1nccc1Nc1nccc(-c2ccn([C@H](CO)c3ccc(Cl)c(F)c3)c(=O)c2)n1` yielded a GI50 of 36 µM and a TGI of over 100 µM.
In the case of `N#CC1c2ccccc2C=CN1C(=O)CCCl` (stereo not drawn), the GI50 is reported as 20.1 µM and the TGI is reported as 37.3 µM.
`O=C1NC(=N[C@@H](CO)c2ccccc2)S/C1=C\c1ccc2ncccc2c1` was tested, and the GI50 was 9.83 µM and the TGI was over 25 µM.
For `O=C1/C(=C/c2ccc(Cl)c(Cl)c2)CN(C(=O)CCN2CCC(=NO)CC2)C/C1=C\c1ccc(Cl)c(Cl)c1`, the GI50 was 2.15 µM and the TGI was 6.47 µM.
`CCN(CC)CCCNc1ccc(C)c2sc3ccccc3c(=O)c12` was tested, and the GI50 was 0.554 µM and the TGI was 1.99 µM.
`CCNc1nc(O)c(/C=C2\C=Nc3ncccc32)s1` gave a GI50 of 16.5 µM and a TGI of over 100 µM.
In the case of `O=C(/C=C/C12c3ccccc3C(c3ccccc31)C1C(=O)NC(=O)C12)c1ccccn1` (stereo not drawn), the GI50 is reported as 2.34 µM and the TGI is reported as 6.86 µM.
For `CC1=C(C(=O)Nc2ccccc2)C(c2ccc(N(C)C)cc2)C(C(=O)Nc2ccccc2)=C(C)N1`, the TGI was 98.9 µM.

The compounds below were run on MCF7 breast (assay: NCI anticancer screen, dose series, 48 h).
In the case of `Cc1nn(-c2ccc(Cl)cc2)c2ncnc(N/N=C/c3ccccc3O)c12`, the GI50 is reported as 0.887 µM and 0.399 µM and the TGI is reported as over 100 µM.
For `COc1ccc2c(c1)C(=O)c1c-2c(Nc2ccccc2OC)nc2ccccc12`, the GI50 was over 100 µM and the TGI was over 100 µM.
`COc1ccc2c(N)ncc(C#Cc3cc(C(=O)Nc4ccc(CN5CCN(C)CC5)c(C(F)(F)F)c4)cnc3C)c2c1` showed a GI50 of 0.745 µM and a TGI of 2.63 µM.
With `COc1cc2c(N3CCN(C(=O)Nc4ccc(OC(C)C)cc4)CC3)ncnc2cc1OCCCN1CCCCC1` the GI50 was 13.4 µM and the TGI was 36.6 µM.
Work on `Nc1ncc(Cc2ccc3c(c2)OCO3)c(N)n1` yielded a TGI of over 100 µM.
`c1ccc(-c2[nH]ncc2-c2ccnc(-c3ccc(OCCn4ccnc4)cc3)c2)nc1` showed a GI50 of over 25 µM and a TGI of over 25 µM.
`O=C1c2cccc(Oc3ccccc3)c2C(=O)c2cccc(Oc3ccccc3)c21` was tested, and the GI50 was over 100 µM and the TGI was over 100 µM.
Work on `O=C(OCc1ccc2c(Br)cc(Br)c(O)c2n1)c1cc2ccccc2[nH]1` yielded a GI50 of 0.434 µM and a TGI of 2.07 µM.
`CC(C)(CO)CNC(=O)c1ccc2[nH]c(O)c(N=Nc3ccc(S(N)(=O)=O)cc3)c2c1` gave a GI50 of over 25 µM and a TGI of over 25 µM.
In the case of `Cc1cc(O)c2c(c1)C(=O)C=CC2=O`, the TGI is reported as 11.3 µM and 21.8 µM.
Work on `CC1(C)N=C(N)N=C(N)N1c1ccc(CCC(=O)Nc2ccc(S(=O)(=O)F)cc2)cc1` yielded a GI50 of 1.8 µM and a TGI of over 100 µM.
`N#CC1(c2ccc(NC(=O)c3cccnc3NCc3ccncc3)cc2)CCCC1` showed a GI50 of 10.6 µM and a TGI of 49.5 µM.
In the case of `Cn1nccc1Nc1nccc(-c2ccn([C@H](CO)c3ccc(Cl)c(F)c3)c(=O)c2)n1`, the GI50 is reported as 27.4 µM and the TGI is reported as over 100 µM.
`N#CC1c2ccccc2C=CN1C(=O)CCCl` (stereo not drawn) gave a GI50 of 2.6 µM and a TGI of 12.5 µM.
Compound `O=C1NC(=N[C@@H](CO)c2ccccc2)S/C1=C\c1ccc2ncccc2c1` has a GI50 of 8.38 µM and a TGI of over 25 µM.
`O=C1/C(=C/c2ccc(Cl)c(Cl)c2)CN(C(=O)CCN2CCC(=NO)CC2)C/C1=C\c1ccc(Cl)c(Cl)c1` showed a GI50 of 0.333 µM and a TGI of 1.74 µM.
`CCN(CC)CCCNc1ccc(C)c2sc3ccccc3c(=O)c12` showed a GI50 of 0.277 µM and a TGI of 1.05 µM.
With `CCNc1nc(O)c(/C=C2\C=Nc3ncccc32)s1` the GI50 was 2.55 µM and the TGI was over 100 µM.
`O=C(/C=C/C12c3ccccc3C(c3ccccc31)C1C(=O)NC(=O)C12)c1ccccn1` (stereo not drawn) gave a GI50 of 0.562 µM and a TGI of 2.43 µM.
`CC1=C(C(=O)Nc2ccccc2)C(c2ccc(N(C)C)cc2)C(C(=O)Nc2ccccc2)=C(C)N1` showed a TGI of over 100 µM.

The compounds below were run on MDA-MB-231 breast (assay: NCI anticancer screen, dose series, 48 h).
For `Cc1nn(-c2ccc(Cl)cc2)c2ncnc(N/N=C/c3ccccc3O)c12`, the GI50 was 0.694 µM and 0.375 µM and the TGI was over 65.3 µM.
`COc1ccc2c(c1)C(=O)c1c-2c(Nc2ccccc2OC)nc2ccccc12` showed a GI50 of over 100 µM and a TGI of over 100 µM.
`COc1ccc2c(N)ncc(C#Cc3cc(C(=O)Nc4ccc(CN5CCN(C)CC5)c(C(F)(F)F)c4)cnc3C)c2c1` was tested, and the GI50 was 0.501 µM and the TGI was 1.16 µM.
`COc1cc2c(N3CCN(C(=O)Nc4ccc(OC(C)C)cc4)CC3)ncnc2cc1OCCCN1CCCCC1` gave a GI50 of 14.4 µM and a TGI of 32.4 µM.
With `Nc1ncc(Cc2ccc3c(c2)OCO3)c(N)n1` the TGI was over 100 µM.
In the case of `c1ccc(-c2[nH]ncc2-c2ccnc(-c3ccc(OCCn4ccnc4)cc3)c2)nc1`, the GI50 is reported as over 25 µM and the TGI is reported as over 25 µM.
In the case of `O=C1c2cccc(Oc3ccccc3)c2C(=O)c2cccc(Oc3ccccc3)c21`, the GI50 is reported as 44.8 µM and the TGI is reported as over 100 µM.
`O=C(OCc1ccc2c(Br)cc(Br)c(O)c2n1)c1cc2ccccc2[nH]1` gave a GI50 of 0.963 µM and a TGI of 2.44 µM.
For `CC(C)(CO)CNC(=O)c1ccc2[nH]c(O)c(N=Nc3ccc(S(N)(=O)=O)cc3)c2c1`, the GI50 was over 25 µM and the TGI was over 25 µM.
With `Cc1cc(O)c2c(c1)C(=O)C=CC2=O` the TGI was 25.3 µM and 18.6 µM.
With `CC1(C)N=C(N)N=C(N)N1c1ccc(CCC(=O)Nc2ccc(S(=O)(=O)F)cc2)cc1` the GI50 was 23.1 µM and the TGI was over 100 µM.
`N#CC1(c2ccc(NC(=O)c3cccnc3NCc3ccncc3)cc2)CCCC1` showed a GI50 of 11.3 µM and a TGI of 52.8 µM.
`Cn1nccc1Nc1nccc(-c2ccn([C@H](CO)c3ccc(Cl)c(F)c3)c(=O)c2)n1` was tested, and the GI50 was 5.96 µM and the TGI was over 100 µM.
Compound `N#CC1c2ccccc2C=CN1C(=O)CCCl` (stereo not drawn) has a GI50 of 8.78 µM and a TGI of 23.8 µM.
`O=C1NC(=N[C@@H](CO)c2ccccc2)S/C1=C\c1ccc2ncccc2c1` was tested, and the GI50 was over 23.1 µM and the TGI was over 25 µM.
`O=C1/C(=C/c2ccc(Cl)c(Cl)c2)CN(C(=O)CCN2CCC(=NO)CC2)C/C1=C\c1ccc(Cl)c(Cl)c1` was tested, and the GI50 was 0.616 µM and the TGI was 1.85 µM.
`CCN(CC)CCCNc1ccc(C)c2sc3ccccc3c(=O)c12` showed a GI50 of 0.294 µM and a TGI of 0.863 µM.
`CCNc1nc(O)c(/C=C2\C=Nc3ncccc32)s1` was tested, and the GI50 was 4.17 µM and the TGI was over 100 µM.
Compound `O=C(/C=C/C12c3ccccc3C(c3ccccc31)C1C(=O)NC(=O)C12)c1ccccn1` (stereo not drawn) has a GI50 of 1.49 µM and a TGI of 4.44 µM.
`CC1=C(C(=O)Nc2ccccc2)C(c2ccc(N(C)C)cc2)C(C(=O)Nc2ccccc2)=C(C)N1` gave a TGI of over 100 µM.
